Laboratory results taken from PubChem BioAssay AID330 (DTP/NCI, 2004).
“And” between values parts separate entries of the source, which are not always exact repeats. Identical values can stand only once. Toxic doses and inconclusive results are not listed. Rule for the calls: active = survival T/C of 150% or more; inactive = T/C below 125% in these data.

Tested on: P388 leukemia ip, CD2F1 mice, survival T/C
Assay: NCI In Vivo Anticancer Drug Screen. Data for tumor model P388 Leukemia (intraperitoneal) in CD2F1 (CDF1) mice
Conditions: endpoint: median survival time, higher = longer survival
Procedure, shortened: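 Mice carrying the transplanted tumor received test compound or vehicle. Survival was recorded in each group, and the value is the treated-group measurement divided by that of the vehicle-treated control group.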

Measured: T/C

CN(Cc1cnc2nc(N)nc(N)c2n1)c1ccc(C(=O)N[C@@H](CCC(=O)O)C(=O)O)cc1
inactive: dose: 0.09 mg/kg/injection, schedule: Q01DX009 (ip), vehicle: sodium bicarbonate 120 % of control | dose: 0.18 mg/kg/injection, schedule: Q01DX009 (ip), vehicle: sodium bicarbonate 113 % of control | dose: 0.25 mg/kg/injection, schedule: Q01DX005 (ip), vehicle: sodium bicarbonate 117 % of control | dose: 1.7 mg/kg/injection, schedule: Q01DX009 (ip), vehicle: sodium bicarbonate 106 % of control | dose: 2.0 mg/kg/injection, schedule: Q02DX005 (ip), vehicle: saline 105 % of control | dose: 3.0 mg/kg/injection, schedule: Q01DX015 (ip), vehicle: sodium bicarbonate 110 % of control | dose: 3.0 mg/kg/injection, schedule: Q02DX005 (ip), vehicle: saline 105 % of control | dose: 3.0 mg/kg/injection, schedule: Q## X009 (ip), vehicle: sodium bicarbonate 118 % of control | dose: 3.13 mg/kg/injection, schedule: Q01DX001 (ip), vehicle: sodium bicarbonate 122 % of control | dose: 9.0 mg/kg/injection, schedule: Q04DX003 (ip), vehicle: sodium bicarbonate 116 % of control | dose: 15.0 mg/kg/injection, schedule: Q04DX003 (ip), vehicle: sodium bicarbonate 117 % of control | dose: 18.0 mg/kg/injection, schedule: Q04DX003 (ip), vehicle: sodium bicarbonate 114 % of control | dose: 25.0 mg/kg/injection, schedule: Q04DX002 (ip), vehicle: sodium bicarbonate 115 % of control | dose: 33.3 mg/kg/injection, schedule: Q01DX001 (ip), vehicle: sodium bicarbonate 109 % of control | dose: 36.0 mg/kg/injection, schedule: Q04DX003 (iv), vehicle: sodium bicarbonate 124 % of control | dose: 42.0 mg/kg/injection, schedule: Q04DX002 (ip), vehicle: sodium bicarbonate 105 % of control | dose: 50.0 mg/kg/injection, schedule: Q04DX003 (ip), vehicle: sodium bicarbonate 111 % of control
active: dose: 0.25 mg/kg/injection, schedule: Q01DX009 (ip), vehicle: sodium bicarbonate 150 % of control and 154 % of control | dose: 0.32 mg/kg/injection, schedule: Q01DX009 (ip), vehicle: sodium bicarbonate 166 % of control and 168 % of control | dose: 0.38 mg/kg/injection, schedule: Q01DX009 (ip), vehicle: other 163 % of control | dose: 0.38 mg/kg/injection, schedule: Q01DX009 (ip), vehicle: saline 169 % of control | dose: 0.38 mg/kg/injection, schedule: Q## X009 (ip), vehicle: sodium bicarbonate 154 % of control | dose: 0.48 mg/kg/injection, schedule: Q01DX009 (ip), vehicle: sodium bicarbonate 168 % of control | dose: 0.5 mg/kg/injection, schedule: Q01DX009 (ip), vehicle: sodium bicarbonate 176 % of control and 177 % of control | dose: 0.54 mg/kg/injection, schedule: Q01DX009 (ip), vehicle: sodium bicarbonate 175 % of control and 180 % of control | dose: 0.6 mg/kg/injection, schedule: Q01DX009 (ip), vehicle: clinical formulation 164 % of control | dose: 0.62 mg/kg/injection, schedule: Q01DX005 (ip), vehicle: sodium bicarbonate 158 % of control | dose: 0.73 mg/kg/injection, schedule: Q01DX009 (ip), vehicle: sodium bicarbonate 184 % of control | dose: 0.75 mg/kg/injection, schedule: Q01DX005 (ip), vehicle: sodium bicarbonate 166 % of control | dose: 0.75 mg/kg/injection, schedule: Q01DX009 (ip), vehicle: other 195 % of control | dose: 0.75 mg/kg/injection, schedule: Q01DX009 (ip), vehicle: saline 200 % of control | dose: 0.75 mg/kg/injection, schedule: Q01DX015 (ip), vehicle: sodium bicarbonate 186 % of control | dose: 0.75 mg/kg/injection, schedule: Q## X009 (ip), vehicle: sodium bicarbonate 190 % of control | dose: 0.8 mg/kg/injection, schedule: Q01DX009 (ip), vehicle: clinical formulation 164 % of control | dose: 1.0 mg/kg/injection, schedule: Q01DX009 (ip), vehicle: clinical formulation 180 % of control | dose: 1.0 mg/kg/injection, schedule: Q01DX009 (ip), vehicle: sodium bicarbonate 177 % of control and 194 % of control and 195 % of control | dose: 1.0 mg/kg/injection, schedule: Q02DX005 (ip), vehicle: sodium bicarbonate 160 % of control | dose: 1.1 mg/kg/injection, schedule: Q01DX009 (ip), vehicle: sodium bicarbonate 192 % of control | dose: 1.2 mg/kg/injection, schedule: Q01DX009 (ip), vehicle: clinical formulation 189 % of control | dose: 1.25 mg/kg/injection, schedule: Q01DX005 (ip), vehicle: sodium bicarbonate 182 % of control | dose: 1.3 mg/kg/injection, schedule: Q01DX009 (ip), vehicle: sodium bicarbonate 196 % of control | dose: 1.5 mg/kg/injection, schedule: Q01DX005 (ip), vehicle: sodium bicarbonate 182 % of control | dose: 1.75 mg/kg/injection, schedule: Q01DX005 (ip), vehicle: sodium bicarbonate 182 % of control | dose: 2.0 mg/kg/injection, schedule: Q01DX005 (iv), vehicle: sodium bicarbonate 161 % of control | dose: 2.0 mg/kg/injection, schedule: Q02DX005 (ip), vehicle: sodium bicarbonate 163 % of control and 192 % of control | dose: 2.3 mg/kg/injection, schedule: Q04DX003 (ip), vehicle: saline 181 % of control | dose: 2.5 mg/kg/injection, schedule: Q01DX005 (ip), vehicle: sodium bicarbonate 187 % of control | dose: 2.5 mg/kg/injection, schedule: Q01DX006 (ip), vehicle: sodium bicarbonate 179 % of control | dose: 2.5 mg/kg/injection, schedule: Q04DX003 (ip), vehicle: sodium bicarbonate 183 % of control | dose: 3.0 mg/kg/injection, schedule: Q01DX006 (ip), vehicle: sodium bicarbonate 170 % of control | dose: 3.0 mg/kg/injection, schedule: Q02DX005 (ip), vehicle: sodium bicarbonate 182 % of control | dose: 3.5 mg/kg/injection, schedule: Q01DX006 (ip), vehicle: sodium bicarbonate 187 % of control | dose: 4.0 mg/kg/injection, schedule: Q01DX005 (iv), vehicle: sodium bicarbonate 190 % of control | dose: 4.32 mg/kg/injection, schedule: Q04DX003 (ip), vehicle: sodium bicarbonate 171 % of control | dose: 4.5 mg/kg/injection, schedule: Q04DX003 (ip), vehicle: sodium bicarbonate 174 % of control | dose: 4.6 mg/kg/injection, schedule: Q04DX003 (ip), vehicle: saline 204 % of control | dose: 5.0 mg/kg/injection, schedule: Q04DX003 (ip), vehicle: sodium bicarbonate 189 % of control | dose: 5.18 mg/kg/injection, schedule: Q04DX003 (ip), vehicle: sodium bicarbonate 180 % of control | dose: 6.48 mg/kg/injection, schedule: Q04DX003 (ip), vehicle: sodium bicarbonate 182 % of control | dose: 7.2 mg/kg/injection, schedule: Q04DX003 (ip), vehicle: sodium bicarbonate 199 % of control | dose: 7.78 mg/kg/injection, schedule: Q04DX002 (ip), vehicle: sodium bicarbonate 171 % of control | dose: 8.64 mg/kg/injection, schedule: Q04DX003 (ip), vehicle: sodium bicarbonate 201 % of control | dose: 9.0 mg/kg/injection, schedule: Q04DX003 (iv), vehicle: sodium bicarbonate 174 % of control | dose: 9.72 mg/kg/injection, schedule: Q04DX002 (ip), vehicle: sodium bicarbonate 175 % of control | dose: 10.0 mg/kg/injection, schedule: Q04DX004 (ip), vehicle: sodium bicarbonate 189 % of control | dose: 10.8 mg/kg/injection, schedule: Q04DX003 (ip), vehicle: sodium bicarbonate 202 % of control | dose: 13.0 mg/kg/injection, schedule: Q04DX002 (ip), vehicle: sodium bicarbonate 165 % of control | dose: 14.4 mg/kg/injection, schedule: Q04DX003 (ip), vehicle: sodium bicarbonate 181 % of control | dose: 16.2 mg/kg/injection, schedule: Q04DX002 (ip), vehicle: sodium bicarbonate 195 % of control | dose: 18.0 mg/kg/injection, schedule: Q01DX001 (ip), vehicle: sodium bicarbonate 173 % of control | dose: 18.0 mg/kg/injection, schedule: Q04DX003 (iv), vehicle: sodium bicarbonate 194 % of control | dose: 18.4 mg/kg/injection, schedule: Q04DX003 (ip), vehicle: saline 177 % of control | dose: 20.0 mg/kg/injection, schedule: Q04DX004 (ip), vehicle: sodium bicarbonate 189 % of control | dose: 21.6 mg/kg/injection, schedule: Q04DX002 (ip), vehicle: sodium bicarbonate 191 % of control | dose: 25.0 mg/kg/injection, schedule: Q04DX004 (ip), vehicle: sodium bicarbonate 180 % of control | dose: 27.0 mg/kg/injection, schedule: Q04DX002 (ip), vehicle: sodium bicarbonate 201 % of control | dose: 36.0 mg/kg/injection, schedule: Q01DX001 (ip), vehicle: sodium bicarbonate 150 % of control | dose: 36.0 mg/kg/injection, schedule: Q01DX001 (iv), vehicle: sodium bicarbonate 156 % of control | dose: 40.0 mg/kg/injection, schedule: Q01DX001 (ip), vehicle: sodium bicarbonate 150 % of control | dose: 45.0 mg/kg/injection, schedule: Q04DX002 (ip), vehicle: sodium bicarbonate 200 % of control | dose: 72.0 mg/kg/injection, schedule: Q01DX001 (iv), vehicle: sodium bicarbonate 161 % of control | dose: 100.0 mg/kg/injection, schedule: Q01DX001 (ip), vehicle: sodium bicarbonate 158 % of control and 161 % of control | dose: 125.0 mg/kg/injection, schedule: Q01DX001 (ip), vehicle: sodium bicarbonate 166 % of control | dose: 150.0 mg/kg/injection, schedule: Q01DX001 (ip), vehicle: sodium bicarbonate 158 % of control | dose: 200.0 mg/kg/injection, schedule: Q01DX001 (ip), vehicle: sodium bicarbonate 170 % of control | dose: 400.0 mg/kg/injection, schedule: Q01DX001 (ip), vehicle: sodium bicarbonate 181 % of control
